This is an account of results in publication PMC5564622 (Oncotarget, 2017).

Series [1] concerns LoVo/ADR cells (ABCB1-overexpressing).
Procedure: (§1) The human colon cancer cell lines LoVo, HCT8, Caco-2 were obtained from the Cell Bank of the Chinese Academy of Sciences. DOX-selected ABCB1-overexpression LoVo/ADR, HCT8/ADR, Caco-2/ADR cell lines were purchased from Shanghai Yan Sheng Industrial Co., LTD. […] All the DOX-selected ABCB1-overexpression cells were seeded in a medium containing 1μM of DOX to maintain their drug resistance phenotype.
For another series, the system named is HCT8 cells. Put plainly: cells. The series is classed as cell-based, human.
Series [2] concerns HCT8/ABCB1 cells (ABCB1-transfected).
Procedure: (§2) HCT8/pcDNA3.1 and HCT8/ABCB1 cells were established by transfecting HCT8 with empty pcDNA3.1 or vector containing the full length ABCB1, and were cultured in medium with 2 mg/ml G418.
The subject of series [3] is HCT8/ADR cells (ABCB1-overexpressing).
Procedure: as §1
The test system of another series is LoVo cells. Put plainly: cells. The series is classed as cell-based, human.
The test system of the next series is HCT8/pcDNA3.1 cells. Put plainly: cells. The series is classed as cell-based, human.
In another series the test system is HCT8/ADR xenografts. Put plainly: HCT8/ADR nude mouse xenograft model. To be noted: for tumor size versus saline: q3d×5, alone.
Series [4] deals with LoVo/ADR, HCT8/ADR, HCT8/ABCB1 and Caco-2/ADR cells and parental cells. Put plainly: CCK-8 cytotoxicity of BU (non-toxic concentrations). The series is classed as cell-based, human. To be noted: MDR and parental cells.
Series [5] can be described thus: Toxicity analysis in xenograft mice. It counts as in vivo, athymic nude mice (BALB/c-nu/nu). On the procedure: Normal tissues (heart, liver, lung, spleen, kidney, intestine) were harvested for H&E histology studies. Venous blood samples were collected in EDTA-coated tubes for hematology studies. Samples were analyzed for white blood cells (WBC), red blood cells (RBC), platelets (PLT), aspartate aminotransferase (AST), alanine aminotransferase (ALT) and blood urea nitrogen (BUN) in the clinical laboratory at our hospital.

The subject of a further series is MDR in colon cancer. Nature of the series: Preliminary experiment on Chansu ingredients and MDR. The series is classed as cell-based. The conditions noted are these: six active ingredients of Chansu.
For series [6], the system named is LoVo/ADR cells (ABCB1-overexpressing). Put plainly: cells. The conditions noted are these: Homo sapiens.
Procedure: as §1
Series [7] has as its system HCT8/ADR cells (ABCB1-overexpressing). Put plainly: cells. The conditions noted are these: Homo sapiens.
Procedure: as §1
A further series relates to ABCB1. Put plainly: ABCB1-mediated drug transport assay (Caco-2 monolayer). To be noted: human. On the technique in general: Caco-2 cells form a polarised layer with tight junctions and transporters.
The subject of series [8] is HCT8/ABCB1 cells (ABCB1-transfected). Nature of the series: cells. The conditions noted are these: Homo sapiens.
Procedure: as §2
The mark [9] stands for this setting: HCT-8, 48 h, read-out: IC50 of DOX.
[10] abbreviates: Homo sapiens, HCT-8, 48 h, read-out: IC50 of DOX.
[11] abbreviates: Homo sapiens, HCT-8, read-out: IC50 of MIT.

Like-named read-outs stand apart in the source and are kept apart here.

Procedure for HCT8 cells: as §1
Procedure for HCT8/pcDNA3.1 cells: as §2
Procedure for LoVo cells: as §1

By IC50 is commonly meant the midpoint of a concentration-inhibition curve. As to “5(6)-carboxy-2′,7′-dichlorofluorescein [CDCF]”, the IC50 in series [1] (read-out: IC50 of CDCF, LoVo/ADR, CDCF alone) worked out at 1130 ± 50 µM; in the series with HCT8 cells (HCT8, CDCF alone, read-out: IC50 of CDCF) it was 700 ± 100 µM; in series [2] (read-out: IC50 of CDCF, HCT8/ABCB1, CDCF alone) it was 1080 ± 140 µM; in series [3] (read-out: IC50 of CDCF, HCT8/ADR, CDCF alone), 960 ± 160 µM; in the series with LoVo cells (CDCF alone, read-out: IC50 of CDCF), 1020 ± 110 µM; with HCT8/pcDNA3.1 cells (HCT8/pcDNA3.1, CDCF alone, read-out: IC50 of CDCF), 910 ± 180 µM.

Regarding `C[C@]12CC[C@H](O)C[C@H]1CC[C@@H]1[C@@H]2CC[C@]2(C)[C@@H](c3ccc(=O)oc3)CC[C@]12O` [BU, Bufalin], the “tumor size versus saline” value in the series on HCT8/ADR xenografts (BU 0.1 mg/kg, i.p.) is “No significant difference”. For the same compound, the “ABCB1 expression in tumor tissue (IHC)” value with HCT8/ADR xenografts (HCT8/ADR xenografts, BU 0.1 mg/kg) is recorded as “inhibit ABCB1 expression in vivo”. In [4], the “non-toxic concentration (survival rate higher than 80%), maximum for reversal assays” value is reported as “up to 20 nM”. The toxicity on mice result in series [5] (BU 0.1mg/kg) is “did not induce any toxicity”. Also, the “effect on MDR” value in the series with MDR in colon cancer was “could effectively reverse MDR”.

One may read the Papp A→B as how fast a substance crosses the layer from the apical side. Usually Papp B→A stands for how fast a substance crosses the layer from the basolateral side. One may read the efflux ratio as a quotient of directional permeabilities that is used to spot active efflux. In the case of `COc1cccc2c1C(=O)c1c(O)c3c(c(O)c1C2=O)C[C@@](O)(C(=O)CO)C[C@@H]3O[C@H]1C[C@H](N)[C@H](O)[C@H](C)O1` [DOX, doxorubicin], the 50% inhibitory concentration (IC50) worked out at 16.3 ± 0.54 µM in series [6] (48 h, read-out: IC50 of DOX); 7.2 ± 0.8 µM in [7] (setting [9]); 0.55 ± 0.14 µM in the series on HCT8 cells (setting [10]); 13.3 ± 1.15 µM in series [8] (setting [9]); 1.87 ± 0.15 µM in the series with LoVo cells (Homo sapiens, 48 h, read-out: IC50 of DOX); 0.67 ± 0.12 µM with HCT8/pcDNA3.1 cells (setting [10]). Also, the “tumor size versus saline” value with HCT8/ADR xenografts (DOX 0.1 mg/kg, i.p.) is recorded as “No significant difference”. For the same compound, in the series on HCT8/ADR xenografts (DOX 0.1, 0.5, 1.0 mg/kg, i.p., q3d×5), the tumor growth inhibition result is “inhibit tumor growth with a concentration-dependent pattern”. Besides, the “fold-reversal of MDR” value in series [1] is listed as 16.28 ± 0.54 (1.00); in the series on HCT8 cells (HCT8, DOX alone (reference)), 1.00; in [2], 13.35 ± 1.15 (1.00); in [3], 7.20 ± 0.80 (1.00); in the series with LoVo cells (DOX alone (reference)), 1.00; in the series on HCT8/pcDNA3.1 cells (HCT8/pcDNA3.1, DOX alone (reference)), 1.00. The same compound registered a Papp A→B at 120 min, 20 μM in the series with ABCB1 of 0.68 ± 0.18 ×10⁻⁶ cm/s. The compound further showed a Papp B→A at 120 min, 20 μM with ABCB1 of 3.91 ± 0.68 ×10⁻⁶ cm/s. Also, the efflux ratio at 120 min, 20 μM in the series with ABCB1 was determined as 5.75. Moreover, the “significant toxicity: deaths” value in series [5] (DOX 0.5 mg/kg and DOX 1.0 mg/kg groups, with weight loss) is 2 deaths out of 6 mice. The “alanine transaminase (ALT) and aspartate transaminase (AST)” value in series [5] (high concentration DOX (0.5, 1.0 mg/kg)) is “significantly elevated”.

Regarding `O=C1c2c(O)ccc(O)c2C(=O)c2c(NCCNCCO)ccc(NCCNCCO)c21` [MIT, mitoxantrone], the IC50 was 1.23 ± 0.08 µM in [6] (read-out: IC50 of MIT); 1.02 ± 0.28 µM in series [7] (HCT-8, read-out: IC50 of MIT); 0.85 ± 0.15 µM in the series on HCT8 cells (setting [11]); 1 ± 0.2 µM in [8] (HCT-8, read-out: IC50 of MIT); 1.05 ± 0.09 µM in the series with LoVo cells (Homo sapiens, read-out: IC50 of MIT); 0.88 ± 0.28 µM with HCT8/pcDNA3.1 cells (setting [11]).

For `CC(=O)O[C@H]1[C@H]2O[C@]23[C@@H]2CC[C@@H]4C[C@@H](O)CC[C@]4(C)[C@H]2CC[C@]3(C)[C@H]1c1ccc(=O)oc1` [cinobufagin], the “effect on MDR” value in the series on MDR in colon cancer is listed as “could effectively reverse MDR”.
